Where two headings read alike, the source gives them in different places.
Key:
[1] = biological target: T1, PCAF (Homo sapiens, UniProt Q92831); parameters: Intact protein LC/MS covalent labelling, fragments in pools of five, 200 uM each, 4 °C; conditions: 24 h, 4 °C, pool of five; 200 µM; covalent
T1 construct: gene KAT2B

[2] = biological target: T2, OTUB2 (OTUB2A) (Homo sapiens, UniProt Q96DC9); parameters: Intact protein LC/MS covalent labelling, fragments in pools of five, 200 uM each, 4 °C; conditions: 24 h, 4 °C, pool of five; 200 µM; covalent
T2 construct: full length residues 1-234, E. coli BL21(DE3)-R3, His tag removed by TEV, construct 27312 Da
T2 sequence (Q96DC9 1-234): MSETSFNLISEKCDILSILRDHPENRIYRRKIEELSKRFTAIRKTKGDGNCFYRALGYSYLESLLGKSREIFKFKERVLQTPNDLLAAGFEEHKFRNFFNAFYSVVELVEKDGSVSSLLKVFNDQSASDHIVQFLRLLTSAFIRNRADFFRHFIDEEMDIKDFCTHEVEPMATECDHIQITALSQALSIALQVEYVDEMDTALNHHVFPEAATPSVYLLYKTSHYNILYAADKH

[3] = biological target: T3, BSA (Bos taurus, UniProt P02769); parameters: Intact protein LC/MS covalent labelling, fragments in pools of five, 200 uM each, 4 °C; conditions: 24 h, 4 °C, pool of five; 200 µM; covalent
T3 construct: gene ALB

[4] = biological target: T4, NUDT7 (Homo sapiens, UniProt P0C024); parameters: Intact protein LC/MS covalent labelling, fragments in pools of five, 200 uM each, 4 °C; conditions: 24 h, 4 °C, pool of five; 200 µM; covalent
T4 construct: residues 14-235, E. coli, pNIC28-Bsa4, N-terminal His6 tag removed by TEV, construct 26672 Da

[5] = in vitro; parameters: species or system HB2, CCD841; conditions: human, hek293 cells
[6] = in vitro; parameters: species or system CCD841, HEK293; conditions: human, hb2 cells, read-out: HB-2 Cells Viability (%)
[7] = in vitro; parameters: species or system HB2, HEK293; conditions: human, ccd841 cells

T3 sequence (P02769 whole entry, the tested form may be a part): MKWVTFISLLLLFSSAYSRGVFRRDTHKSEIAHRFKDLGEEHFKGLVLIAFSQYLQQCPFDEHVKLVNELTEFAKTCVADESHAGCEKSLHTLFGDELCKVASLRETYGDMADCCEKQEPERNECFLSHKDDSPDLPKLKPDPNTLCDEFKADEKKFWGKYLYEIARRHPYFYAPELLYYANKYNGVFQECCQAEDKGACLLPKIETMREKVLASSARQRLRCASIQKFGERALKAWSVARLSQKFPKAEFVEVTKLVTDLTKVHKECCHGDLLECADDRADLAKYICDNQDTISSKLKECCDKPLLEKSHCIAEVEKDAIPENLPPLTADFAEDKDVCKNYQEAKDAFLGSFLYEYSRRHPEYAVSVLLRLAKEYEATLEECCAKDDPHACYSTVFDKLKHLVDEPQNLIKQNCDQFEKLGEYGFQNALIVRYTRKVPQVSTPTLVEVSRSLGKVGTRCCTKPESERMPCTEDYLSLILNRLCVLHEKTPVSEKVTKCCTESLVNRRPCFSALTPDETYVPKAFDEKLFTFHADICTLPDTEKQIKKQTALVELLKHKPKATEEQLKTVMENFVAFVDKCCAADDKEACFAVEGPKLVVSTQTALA
T4 sequence (P0C024 14-235): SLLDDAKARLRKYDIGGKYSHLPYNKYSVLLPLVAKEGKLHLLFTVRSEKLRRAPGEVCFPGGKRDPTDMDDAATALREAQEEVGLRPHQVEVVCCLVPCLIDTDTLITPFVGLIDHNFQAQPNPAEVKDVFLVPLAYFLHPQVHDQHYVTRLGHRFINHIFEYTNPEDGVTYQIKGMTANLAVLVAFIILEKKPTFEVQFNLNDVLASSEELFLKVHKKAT
T1 sequence (Q92831 whole entry, the tested form may be a part): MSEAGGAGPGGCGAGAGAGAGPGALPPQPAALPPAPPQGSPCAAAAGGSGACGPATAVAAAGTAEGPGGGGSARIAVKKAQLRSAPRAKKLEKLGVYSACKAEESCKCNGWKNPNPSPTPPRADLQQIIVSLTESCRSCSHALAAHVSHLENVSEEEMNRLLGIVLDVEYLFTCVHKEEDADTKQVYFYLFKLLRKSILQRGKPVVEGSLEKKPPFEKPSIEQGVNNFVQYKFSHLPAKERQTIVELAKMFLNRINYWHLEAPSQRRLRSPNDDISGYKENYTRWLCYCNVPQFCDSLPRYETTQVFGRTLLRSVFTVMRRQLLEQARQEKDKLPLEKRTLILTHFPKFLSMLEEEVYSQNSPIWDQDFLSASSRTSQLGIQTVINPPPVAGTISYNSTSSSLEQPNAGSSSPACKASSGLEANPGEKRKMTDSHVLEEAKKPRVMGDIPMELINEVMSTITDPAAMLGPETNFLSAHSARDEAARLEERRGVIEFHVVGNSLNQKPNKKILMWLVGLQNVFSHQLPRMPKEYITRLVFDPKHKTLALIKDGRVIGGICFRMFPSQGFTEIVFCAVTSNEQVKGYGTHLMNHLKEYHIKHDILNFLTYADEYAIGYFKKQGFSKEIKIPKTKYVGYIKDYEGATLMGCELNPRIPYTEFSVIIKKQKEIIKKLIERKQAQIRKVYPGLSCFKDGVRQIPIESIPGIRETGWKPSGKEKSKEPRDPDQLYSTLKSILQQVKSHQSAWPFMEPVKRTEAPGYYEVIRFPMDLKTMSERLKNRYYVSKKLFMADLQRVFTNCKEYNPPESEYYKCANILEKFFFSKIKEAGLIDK

SMILES | PCAF [1] | OTUB2 [2] | BSA [3] | NUDT7 [4] | viability at 48 h, 10 µM [5] | viability at 48 h, 10 µM [6] | viability at 48 h, 10 µM [7]
O=C(CCl)N1CCN(c2ccc(Cl)cc2[N+](=O)[O-])CC1 [PCM-0102125] | 0 | 0 | 0 | 0.29 | 1.4% | 2.3% | 8.1%
O=C(CCl)Nc1ccc2c(c1)OCCCO2 [PCM-0102409] | 0 | 0.23 | 0 | 0.1 | 6.9% | 29.6% | 51.7%
O=C(CCl)Nc1cc(C(F)(F)F)ccc1N1CCCC1 [PCM-0102321] | 0 | 0 | 0 | 0 | 110% | 104% | 116%
O=C(CCl)NCC1CCOC1 (stereo not drawn) [PCM-0102596] | 0 | 0.13 | 0 | 0 | 112% | 93.6% | 90.8%
Cc1nc(NC(=O)CCl)c(Cl)cc1Cl [PCM-0102206] | 0 | 0 | 0 | 0 | 101% | 110% | 105%
C=CC(=O)Nc1cc(-c2ccnn2C)ccc1C [PCM-0102543] | 0 | 0 | 0 | 0 | 93.5% | 103% | 134%
O=C(CCl)Nc1cc(Cl)ccc1-n1cncn1 [PCM-0102258] | 0 | 0 | 0 | 0.21 | 11.7% | 53.8% | 51.7%
O=C(CCl)Nc1cc(C(=O)O)ccc1Cl [PCM-0102590] | 0 | 0 | 0 | 0 | 110% | 103% | 102%
CC(c1ccc(F)c(F)c1)N(C)C(=O)CCl (stereo not drawn) [PCM-0102438] | 0 | 0.08 | 0 | 0.14 | 16.4% | 23.2% | 39.3%
O=C(CCl)N1CCCC(C(F)(F)F)C1 (stereo not drawn) [PCM-0102676] | 0 | 0 | 0 | 0.14 | 54.4% | 44.7% | 88.5%
C=CC(=O)NC1CCc2cnn(C(C)C)c2C1 (stereo not drawn) [PCM-0102487] | 0 | 0 | 0 | 0 | 97.7% | 95.5% | 120%
CC1(c2ccccc2)NC(=O)N(NC(=O)CCl)C1=O (stereo not drawn) [PCM-0102428] | 0 | 0 | 0 | 0 | 103% | 91.2% | 81.4%
O=C(CCl)NCc1ccc2c(c1)OCO2 [PCM-0102578] | 0 | 0.16 | 0 | 0 | 85.6% | 97.5% | 99.9%
CCN(C(=O)CCl)C1=CCCCC1 [PCM-0103084] | 0 | 0 | 0.19 | 0 | 120% | 106% | 97.8%
COC(=O)c1c(NC(=O)CCl)sc2c1CCCCC2 [PCM-0102200] | 0 | 0 | 0 | 0.11 | 21.8% | 49.5% | 80.8%
Cc1noc(NC(=O)CCl)n1 [PCM-0102351] | 0 | 0 | 0 | 0 | 119% | 103% | 94.9%
C=CC(=O)NC1CCCN(c2cnn(C)c2)C1 (stereo not drawn) [PCM-0102480] | 0 | 0 | 0 | 0 | 91.8% | 99.5% | 96.4%
C=CC(=O)NC1CCCCC1n1cccn1 (stereo not drawn) [PCM-0102440] | 0 | 0 | 0 | 0.08 | 98.5% | 91.4% | 100%
Cc1cc(CNC(=O)CCl)ccc1F [PCM-0102305] | 0 | 0.59 | 0.13 | 0 | 57.8% | 85.5% | 80.7%
Cc1cc(NC(=O)CCl)on1 [PCM-0102197] | 0 | 0 | 0 | 0 | 68.5% | 74.3% | 87.9%

The next lines start with results.

PCAF [1] | OTUB2 [2] | BSA [3] | NUDT7 [4] | SMILES | viability at 48 h, 10 µM [5] | viability at 48 h, 10 µM [6] | viability at 48 h, 10 µM [7]
0 | 0 | 0 | 0 | C=CC(=O)N1CCN(C(=O)C23CC4CC(CC(C4)C2)C3)CC1 [PCM-0102682] | 72.7% | 102% | 103%
0 | 0 | 0 | 0.14 | CC(=O)c1cc2c(cc1NC(=O)CCl)OCO2 [PCM-0103010] | 69.5% | 59.9% | 86%
0 | 0.65 | 0 | 0 | O=C(CCl)NCC12CC3CC(CC(C3)C1)C2 [PCM-0102706] | 40.8% | 61.3% | 76.1%
0 | 0 | 0 | 0 | Cc1nn(C)c(C)c1NC(=O)CCl [PCM-0102949] | 99.6% | 93.9% | 83.8%
0 | 0 | 0 | 0.18 | O=C(CCl)N1CCN(S(=O)(=O)c2ccccc2Cl)CC1 [PCM-0102837] | 6% | 4.7% | 46.9%
0 | 0 | 0 | 0.13 | CC(C)N(C(=O)CCl)C1CCCC1 [PCM-0102948] | 84.3% | 88.4% | 102%
0 | 0.36 | 0 | 0 | CC(=O)c1cccc(NC(=O)CCl)c1 [PCM-0102965] | 1.9% | 2.5% | 11%
0 | 0 | 0 | 0.37 | CC1CCN(C(=O)CCl)C2CCCCC12 (stereo not drawn) [PCM-0102831] | 5.6% | 14.7% | 6.8%
0 | 0 | 0 | 0 | Cl.O=C(CCl)Nc1ccncc1 [PCM-0102930] | 90.5% | 86.4% | 90.7%
0 | 0.79 | 0 | 0 | O=C(CCl)NCc1ccc(Cl)s1 [PCM-0103080] | 73% | 79.6% | 61.2%
0 | 0 | 0 | 0 | Cc1ccccc1NC(=O)CCl [PCM-0102887] | 55.1% | 90.2% | 69.6%
0 | 0 | 0 | 0 | C=CCNC(=O)NC(=O)CCl [PCM-0102709] | 75.3% | 90% | 77.7%
0 | 0 | 0 | 0 | Cc1cc(NC(=O)CCl)n(C(C)(C)C)n1 [PCM-0103057] | 58.6% | 76.3% | 61.7%
